Laboratory results reported in patent US11969423B2, “Compounds” (GLAXOSMITHKLINE INTELLECTUAL PROPERTY DEVELOPMENT LIMITED, priority 2017, dated 2024).

tested on: PPAR marker; conditions: male, Swiss (Crl:CD-1(ICR)), mouse

Row | Compound | In vivo PPAR marker fold increase [fold]
1 | O=C(CCC(F)(F)F)N1CCC(c2ccnc(C(F)(F)F)c2)CC1 [Example 18, 4,4,4-trifluoro-1-(4-(2-(trifluoromethyl)pyridin-4-yl)piperidin-1-yl)butan-1-one] | <6
2 | O=C(CCC(F)(F)F)N1CCC(c2cncc(Cl)c2)CC1 [Example 30, 1-(4-(5-chloropyridin-3-yl)piperidin-1-yl)-4,4,4-trifluorobutan-1-one] | <2

tested on: M. tuberculosis H37Rv-GFP; format: cell-based, Mycobacterium tuberculosis; conditions: read-out: EC50_H37Rv

Row | Compound | EC50 [nM]
3 | O=C(CCC(F)(F)F)N1CCC(c2cnccn2)CC1 [Example 1, 4,4,4-trifluoro-1-(4-pyrazin-2-yl-1-piperidyl)butan-1-one] | 500 to 1000
4 | O=C(CCC(F)(F)F)N1CCC(F)(c2cccnc2)CC1 [Example 2, 4,4,4-trifluoro-1-[4-fluoro-4-(3-pyridyl)-1-piperidyl]butan-1-one] | < 50
5 | O=C(CCC(F)(F)F)N1CCC(c2cncc(F)c2)CC1 [Example 3, 4,4,4-trifluoro-1-[4-(5-fluoro-3-pyridyl)-1-piperidyl]butan-1-one] | 50 to 250
6 | O=C(CCC(F)(F)F)N1CCC(c2ccc(F)nc2)CC1 [Example 4, 4,4,4-trifluoro-1-[4-(6-fluoro-3-pyridyl)-1-piperidyl]butan-1-one] | 50 to 250
7 | O=C(CCC(F)(F)F)N1CCC(c2ccc(C(F)(F)F)nc2)CC1 [Example 5, 4,4,4-trifluoro-1-[4-[6-(trifluoromethyl)-3-pyridyl]-1-piperidyl]butan-1-one] | 500 to 1000
8 | O=C(CCC(F)(F)F)N1CCC(c2cc(C(F)(F)F)ccn2)CC1 [Example 6, 4,4,4-trifluoro-1-[4-[4-(trifluoromethyl)-2-pyridyl]-1-piperidyl]butan-1-one] | < 50
9 | O=C(CCC(F)(F)F)N1CCC(c2cncc(C(F)(F)F)c2)CC1 [Example 7, 4,4,4-trifluoro-1-[4-[5-(trifluoromethyl)-3-pyridyl]-1-piperidyl]butan-1-one] | < 50
10 | O=C(CCC(F)(F)F)N1CCC(c2cccc(C(F)(F)F)n2)CC1 [Example 8, 4,4,4-trifluoro-1-[4-[6-(trifluoromethyl)-2-pyridyl]-1-piperidyl]butan-1-one] | 50 to 250
11 | O=C(CCC(F)(F)F)N1CCC(c2cccc(F)n2)CC1 [Example 9, 4,4,4-trifluoro-1-[4-(6-fluoro-2-pyridyl)-1-piperidyl]butan-1-one] | 50 to 250
12 | COc1ccc(C2CCN(C(=O)CCC(F)(F)F)CC2)cn1 [Example 10, 4,4,4-trifluoro-1-[4-(6-methoxy-3-pyridyl)-1-piperidyl]butan-1-one] | 50 to 250
13 | O=C(CCC(F)(F)F)N1CCC(c2cccnc2C(F)(F)F)CC1 [Example 11, 4,4,4-trifluoro-1-[4-[2-(trifluoromethyl)-3-pyridyl]-1-piperidyl]butan-1-one] | 1000 to 10000
14 | COc1cncc(C2CCN(C(=O)CCC(F)(F)F)CC2)c1 [Example 12, 4,4,4-trifluoro-1-[4-(5-methoxy-3-pyridyl)-1-piperidyl]butan-1-one] | 500 to 1000
15 | O=C(CCC(F)(F)F)N1CCC(c2ncc(F)cc2F)CC1 [Example 13, 1-[4-(3,5-difluoro-2-pyridyl)-1-piperidyl]-4,4,4-trifluoro-butan-1-one] | 50 to 250
16 | O=C(CCC(F)(F)F)N1CCC(c2ccc(F)nc2F)CC1 [Example 14, 1-[4-(2,6-difluoro-3-pyridyl)-1-piperidyl]-4,4,4-trifluoro-butan-1-one] | 50 to 250
17 | O=C(CCC(F)(F)F)N1CCC(c2nccc(C(F)(F)F)n2)CC1 [Example 15] | 1000 to 10000
18 | O=C(CCC(F)(F)F)N1CCC(c2cncnc2)CC1 [Example 16] | 1000 to 10000
19 | O=C(CCC(F)(F)F)N1CCC(c2ccc(F)cn2)CC1 [Example 17, 4,4,4-trifluoro-1-[4-(5-fluoro-2-pyridyl)-1-piperidyl]butan-1-one] | < 50
20 | O=C(CCC(F)(F)F)N1CCC(c2ccnc(C(F)(F)F)c2)CC1 [Example 18, 4,4,4-trifluoro-1-(4-(2-(trifluoromethyl)pyridin-4-yl)piperidin-1-yl)butan-1-one] | < 50
21 | O=C(CCC(F)(F)F)N1CCC(c2cccnn2)CC1 [Example 19, 4,4,4-trifluoro-1-[4-(pyridazin-3-yl)piperidin-1-yl]butan-1-one] | 1000 to 10000
22 | O=C(CCC(F)(F)F)N1CCC(c2ccnc(F)c2)CC1 [Example 20, 4,4,4-trifluoro-1-(4-(2-fluoropyridin-4-yl)piperidin-1-yl)butan-1-one] | < 50
23 | O=C(CCC(F)(F)F)N1CCC(c2cnc(C(F)(F)F)cn2)CC1 [Example 21, 4,4,4-trifluoro-1-(4-(5-(trifluoromethyl)pyrazin-2-yl)piperidin-1-yl)butan-1-one] | 500 to 1000

Row | Compound | EC50 [nM]
24 | Cc1cc(C2CCN(C(=O)CCC(F)(F)F)CC2)ccn1 [Example 22, 4,4,4-trifluoro-1-(4-(2-methylpyridin-4-yl)piperidin-1-yl)butan-1-one] | < 50
25 | O=C(CCC(F)(F)F)N1CCC(c2cnc(F)c(F)c2)CC1 [Example 23, 1-(4-(5,6-difluoropyridin-3-yl)piperidin-1-yl)-4,4,4-trifluorobutan-1-one] | < 50
26 | O=C(CCC(F)(F)F)N1CCC(c2cncc(C(F)(F)F)n2)CC1 [Example 24, 4,4,4-trifluoro-1-(4-(6-(trifluoromethyl)pyrazin-2-yl)piperidin-1-yl)butan-1-one] | 50 to 250
27 | O=C(CCC(F)(F)F)N1CCC(c2ccnc(Cl)c2)CC1 [Example 25, 1-(4-(2-chloropyridin-4-yl)piperidin-1-yl)-4,4,4-trifluorobutan-1-one] | < 50
28 | O=C(CCC(F)(F)F)N1CCC(c2ccncc2F)CC1 [Example 26, 4,4,4-trifluoro-1-(4-(3-fluoropyridin-4-yl)piperidin-1-yl)butan-1-one] | 50 to 250
29 | O=C(CCC(F)(F)F)N1CCC(c2cccc(Cl)n2)CC1 [Example 27, 1-(4-(6-chloropyridin-2-yl)piperidin-1-yl)-4,4,4-trifluorobutan-1-one] | 50 to 250
30 | O=C(CCC(F)(F)F)N1CCC(c2ncccn2)CC1 [Example 28, 4,4,4-trifluoro-1-[4-(pyrimidin-2-yl)piperidin-1-yl]butan-1-one] | 1000 to 10000
31 | O=C(CCC(F)(F)F)N1CCC(F)(c2cncc(Cl)c2)CC1 [Example 29, 1-(4-(5-chloropyridin-3-yl)-4-fluoropiperidin-1-yl)-4,4,4-trifluorobutan-1-one] | < 50
32 | O=C(CCC(F)(F)F)N1CCC(c2cncc(Cl)c2)CC1 [Example 30, 1-(4-(5-chloropyridin-3-yl)piperidin-1-yl)-4,4,4-trifluorobutan-1-one] | < 50
33 | O=C(CCCC(F)(F)F)N1CCC(c2cncc(Cl)c2)CC1 [Example 31, 1-(4-(5-chloropyridin-3-yl)piperidin-1-yl)-5,5,5-trifluoropentan-1-one] | 50 to 250
34 | O=C(CCC(F)(F)F)N1CCC(c2cncc(Cl)n2)CC1 [Example 32, 1-(4-(6-chloropyrazin-2-yl)piperidin-1-yl)-4,4,4-trifluorobutan-1-one] | < 50
35 | O=C(CCC(F)(F)F)N1CCC(F)(c2ccccn2)CC1 [Example 33, 4,4,4-trifluoro-1-(4-fluoro-4-(pyridin-2-yl)piperidin-1-yl)butan-1-one] | 50 to 250
36 | O=C(CCC(F)(F)F)N1CCC(F)(c2cncc(C(F)(F)F)c2)CC1 [Example 34, 4,4,4-trifluoro-1-(4-fluoro-4-(5-(trifluoromethyl)pyridin-3-yl)piperidin-1-yl)butan-1-one] | < 50
37 | O=C(CCC(F)(F)F)N1CCC(F)(c2ccnc(C(F)(F)F)c2)CC1 [Example 35, 4,4,4-trifluoro-1-(4-fluoro-4-(2-(trifluoromethyl)pyridin-4-yl)piperidin-1-yl)butan-1-one] | < 50
38 | O=C(CCC(F)(F)F)N1CCC(F)(c2cncc(Cl)n2)CC1 [Example 36, 1-(4-(6-chloropyrazin-2-yl)-4-fluoropiperidin-1-yl)-4,4,4-trifluorobutan-1-one] | 50 to 250
39 | O=C(CCC(F)(F)F)N1CCC(F)(c2ccnc(F)c2)CC1 [Example 37, 4,4,4-trifluoro-1-(4-fluoro-4-(2-fluoropyridin-4-yl)piperidin-1-yl)butan-1-one] | < 50
40 | O=C(CCC(F)(F)F)N1CCC(c2cncc(Cl)c2)C1 (centres unmarked) [Example 38, 1-(3-(5-chloropyridin-3-yl)pyrrolidin-1-yl)-4,4,4-trifluorobutan-1-one] | < 50
41 | O=C(CCC(F)(F)F)N1CCC(F)(c2cc(C(F)(F)F)ccn2)CC1 [Example 39, 4,4,4-trifluoro-1-[4-fluoro-4-[4-(trifluoromethyl)-2-pyridyl]-1-piperidyl]butan-1-one] | 50 to 250
42 | O=C(CCC(F)(F)F)N1CCC(F)(c2ccc(F)nc2)CC1 [Example 40] | 50 to 250
43 | O=C(CCC(F)(F)F)N1CCC(F)(c2ccnc(Cl)c2)CC1 [Example 41] | < 50

tested on: not given; conditions: male, SD, in vivo
Protocol: Male SD rats (n=3/compound/route) were used for single intravenous and oral dose PK studies. Compounds were administered intravenously (infusion over 30 minutes) as a solution (Formulation: 5% DMSO: 20% Encapsine in saline; target dose 1 mg/kg) and orally as suspensions (Formulation: 1% Methyl Cellulose; target dose 5 mg/kg). After dosing, blood samples ([…]) were collected. Sampling times were the following:
0.25, 0.5 (just before end of infusion), 0.58, 0.75, 1, 1.5, 2, 3, 5, 7, and 24 hours; n=3 rats (intravenous infusion administration) 0.25, 0.5, 1, 2, 4, 6, 8, and 24 hours; n=3 rats (oral gavage administration)
All the blood samples were diluted with 25 μL of water and stored at −80° C. until analysis. Rat blood samples were analyzed for each compound using a method upon protein precipitation followed by LC-MS/MS analysis. All pharmacokinetic parameters were obtained by non-compartmental analysis of the different blood concentration-time profiles using WinNonLin Phoenix Version 6.3.

Row | Compound | F % (rat, 5 mg/kg) [%]
44 | O=C(CCC(F)(F)F)N1CCC(c2ccnc(C(F)(F)F)c2)CC1 [Example 18, 4,4,4-trifluoro-1-(4-(2-(trifluoromethyl)pyridin-4-yl)piperidin-1-yl)butan-1-one] | 75
45 | O=C(CCC(F)(F)F)N1CCC(c2cncc(Cl)c2)CC1 [Example 30, 1-(4-(5-chloropyridin-3-yl)piperidin-1-yl)-4,4,4-trifluorobutan-1-one] | 77

tested on: not given; conditions: male, Swiss (Crl:CD-1(ICR)), mouse, in vivo

Row | Compound | Mice liver hypertrophy (%)
46 | O=C(CCC(F)(F)F)N1CCC(c2ccnc(C(F)(F)F)c2)CC1 [Example 18, 4,4,4-trifluoro-1-(4-(2-(trifluoromethyl)pyridin-4-yl)piperidin-1-yl)butan-1-one] | 6
47 | O=C(CCC(F)(F)F)N1CCC(c2cncc(Cl)c2)CC1 [Example 30, 1-(4-(5-chloropyridin-3-yl)piperidin-1-yl)-4,4,4-trifluorobutan-1-one] | 2
